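96-well plates; 48 h exposure; 5 concentrations. Endpoints by linear interpolation between flanking doses. Not reached: highest tested concentration assigned. Abbreviation: GI50, concentration required for 50% inhibition of growth. TGI: concentration producing complete growth inhibition.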
Key:
Assay in all cases: NCI tumour cell line growth inhibition, 48 h
MOLT-4 leukemia = test system: MOLT-4 leukemia
SK-MEL-28 melanoma = test system: SK-MEL-28 melanoma
HOP-92 NSCLC = test system: HOP-92 NSCLC
NCI-H522 lung = test system: NCI-H522 lung
EKVX NSCLC = test system: EKVX NSCLC
SK-MEL-2 melanoma = test system: SK-MEL-2 melanoma
SF-268 CNS = test system: SF-268 CNS
UACC-257 melanoma = test system: UACC-257 melanoma
OVCAR-3 ovarian = test system: OVCAR-3 ovarian
UACC-62 melanoma = test system: UACC-62 melanoma

SMILES | GI50 (MOLT-4 leukemia) [pM] | GI50 (SK-MEL-28 melanoma) [µM] | TGI (SK-MEL-28 melanoma) [µM] | GI50 (HOP-92 NSCLC) [µM] | TGI (HOP-92 NSCLC) [µM] | GI50 (NCI-H522 lung) [µM] | TGI (NCI-H522 lung) [µM] | TGI (MOLT-4 leukemia) [µM] | TGI (EKVX NSCLC) [µM] | TGI (SK-MEL-2 melanoma) [µM] | TGI (SF-268 CNS) [µM] | TGI (UACC-257 melanoma) [µM] | TGI (OVCAR-3 ovarian) [µM] | TGI (UACC-62 melanoma) [µM] | GI50 (EKVX NSCLC) [µM] | GI50 (SK-MEL-2 melanoma) [µM] | GI50 (SF-268 CNS) [µM] | GI50 (UACC-257 melanoma) [µM] | GI50 (OVCAR-3 ovarian) [µM] | GI50 (UACC-62 melanoma) [µM]
COc1cc2c(cc1O)CCN[C@@]21CS[C@H]2c3c(OC(C)=O)c(C)c4c(c3C(COC1=O)N1C2C2c3c(cc(C)c(OC)c3O)CC([C@@H]1O)N2C)OCO4 (stereo partly specified) | < 1 | 0.00242 | 0.00682 | 0.00347 | 0.064 | 0.000953 | 0.00273 |  |  |  |  |  |  |  |  |  |  |  |  | 
N=C(N)SC1c2ccccc2-c2cc([N+](=O)[O-])ccc21 (stereo unspecified) |  |  | 17.5 |  | 33.5 |  | 6.47 | 17.5 | 29 | 13.9 | 14.3 | 20.9 | 7.47 | 10.1 |  |  |  |  |  | 
C/C=C1/CN2CC[C@@H]3c4ccccc4N4[C@H](C(=O)OC)[C@H]1C[C@H]2[C@]34/C=C/C1=COC[C@@H]2[C@H]1C[C@H]1c3c(c4ccccc4n3C)C[C@@H]2N1C |  |  | 8.88 |  | 9 |  |  | 13.4 | 6.17 | 8.14 | 7.16 | 8.51 | 9.66 | 9.29 |  |  |  |  |  | 
O=S(=O)(O)c1cc(O)c2c(O)c(N=Nc3ccc(/C=C/c4ccc(N=Nc5c(S(=O)(=O)O)cc6cc(S(=O)(=O)O)cc(O)c6c5O)cc4S(=O)(=O)O)c(S(=O)(=O)O)c3)c(S(=O)(=O)O)cc2c1 |  |  | > 100 |  | > 100 |  | > 100 | > 100 | > 100 | > 100 | > 100 | > 100 | > 100 | > 100 |  |  |  |  |  | 
CC(=O)O[C@H]1CC[C@]2(C)[C@H]3C(=O)C=C4[C@@H]5C[C@](C)(C(=O)N6CCCNCC6)CC[C@]5(C)CC[C@@]4(C)[C@]3(C)CC[C@H]2C1(C)C |  | 1.85 | 3.29 | 1.08 | 2.41 | 1.68 | 3.42 |  | 3.15 | 3.7 | 3.58 | 4.26 | 3.29 | 3.13 | 1.67 | 1.93 | 1.8 | 1.98 | 1.76 | 1.69
Nc1nc(SCCC/C=C/B(O)O)nc2c1ncn2C1OC(CO)C(O)C1O (stereo unspecified) |  |  | > 243 |  | > 243 |  | > 243 | > 243 | > 243 | > 243 | > 243 | > 243 | > 243 | > 243 |  |  |  |  |  | 
O=C(N/N=C/c1cc(Br)cc(Br)c1[O-])c1ccccc1O.O=C(N/N=C/c1cc(Br)cc(Br)c1[O-])c1ccccc1O.[Cl-].[Fe+3] |  |  |  |  | 6.12 |  | 4.56 | > 100 | 27.8 | 5.43 | 33.1 | 29.3 | 12.8 | 7.99 |  |  |  |  |  | 
CC1(C)[C@@H]2C[C@H]1C(Cc1ccccc1C[C@H]1c3cc(-c4ccccn4)ncc3[C@H]3C[C@@H]1C3(C)C)c1cc(-c3ccccn3)ncc12 (stereo partly specified) |  |  | > 100 |  |  |  | > 22 | 1.23 | > 100 | > 90.3 | > 36.2 |  | 1.45 | 4.15 |  |  |  |  |  | 
C=C(/C=C/C=C(/CCC=C(C)C)COC(C)=O)[C@@H]1CC[C@]2([C@H](CCCO)/C(=C(/C)C=O)CC[C@]2(C)O)[C@@H]1O |  |  | 26.9 |  |  |  | 32.6 | 34.9 | 42.2 | 33 | 41.9 | 32.6 |  |  |  |  |  |  |  | 
CN(C)CCNc1ccc2nnn3c4ccc(Cl)cc4c(=O)c1c23 |  |  | 18 |  | 14.2 |  | 17.5 | 13.3 | 22.2 | 16.8 | 23.1 | 17.5 | 23 | 18.6 |  |  |  |  |  | 
CCCNCC(O)/C=C/[Si](C)(C)C (stereo unspecified) (tested in a mixture with another compound) |  |  | > 100 |  | > 100 |  | > 100 |  | > 100 | > 100 |  | > 100 | > 100 | > 100 |  |  |  |  |  | 

From PubChem BioAssay (NCI)
